Entries after “also recorded” stand apart in the source; their conditions may differ. Like-named read-outs stand apart in the source and are kept apart here.
How the values were obtained:
CYP3A4 mRNA = test: RT-qPCR mRNA expression in dHepaRG cells; conditions: single exposure, also at other than toxic concentrations
Procedure: The mRNA and protein expression changes were measured after a single administration of ALA and GER. Three concentrations were selected for each compound (non-toxic, non-toxic/slightly toxic and toxic). The cholesterol level of the dHepaRG cells was measured after a multiple exposure of the highest non-toxic concentrations of tested compounds. ATL (30 µM) and GER (100 µM) were administered four times every 24 h. The expression changes of genes and proteins related to cholesterol metabolism were measured in both single and multiple exposure experiments.
All treatments were performed in triplicates and every experiment was performed three times. The cells were washed twice with ice cold phosphate-buffered saline (PBS), scrapped and stored at −80 °C until use. […] The measurement of absorbance at 260 and 280 nm using the NanoDrop ND-1000 UV–VIS Spectrophotometer (Thermo Fisher Scientific, Pardubice, Czech Republic) was used to determine RNA yields and purity. […] Fluorescence data were recorded at the end of each amplification step. Relative expression levels of the target genes were calculated as fold changes in triplicates for each group using the 2^−ΔΔCt method by normalization to the geometric mean of the Ct values of Sdha and Ywhaz, which were used as reference genes.

TFRC mRNA = test: RT-qPCR mRNA expression in dHepaRG cells; assay type: cell-based, human; conditions: single exposure, also at other than toxic concentrations
Procedure: Three concentrations were selected for each compound (non-toxic, non-toxic/slightly toxic and toxic). […] The expression changes of genes and proteins related to cholesterol metabolism were measured in both single and multiple exposure experiments.
(§1) All treatments were performed in triplicates and every experiment was performed three times. The cells were washed twice with ice cold phosphate-buffered saline (PBS), scrapped and stored at −80 °C until use. Total RNA from cells was isolated using TriReagent according to the manufacturer’s instructions (Biotech, Prague, Czech Republic). The purified RNA was dissolved in 40 µL of diethyl pyrocarbonate (DEPC)-treated water (0.01% DEPC in HPLC water, autoclaved) and stored at −80 °C. The measurement of absorbance at 260 and 280 nm using the NanoDrop ND-1000 UV–VIS Spectrophotometer (Thermo Fisher Scientific, Pardubice, Czech Republic) was used to determine RNA yields and purity. […] Fluorescence data were recorded at the end of each amplification step. Relative expression levels of the target genes were calculated as fold changes in triplicates for each group using the 2^−ΔΔCt method [28] by normalization to the geometric mean of the Ct values of Sdha and Ywhaz, which were used as reference genes.

CYP19A1 mRNA = test: RT-qPCR mRNA expression in dHepaRG cells; assay type: cell-based, human
Procedure: (§2) Three concentrations were selected for each compound (non-toxic, non-toxic/slightly toxic and toxic). The cholesterol level of the dHepaRG cells was measured after a multiple exposure of the highest non-toxic concentrations of tested compounds. […] The expression changes of genes and proteins related to cholesterol metabolism were measured in both single and multiple exposure experiments.
All treatments were performed in triplicates and every experiment was performed three times. The cells were washed twice with ice cold phosphate-buffered saline (PBS), scrapped and stored at −80 °C until use. Total RNA from cells was isolated using TriReagent according to the manufacturer’s instructions (Biotech, Prague, Czech Republic). The purified RNA was dissolved in 40 µL of diethyl pyrocarbonate (DEPC)-treated water (0.01% DEPC in HPLC water, autoclaved) and stored at −80 °C. The measurement of absorbance at 260 and 280 nm using the NanoDrop ND-1000 UV–VIS Spectrophotometer (Thermo Fisher Scientific, Pardubice, Czech Republic) was used to determine RNA yields and purity. Subsequently, the RNA (4 µg) was treated with 2 U of DNase I (New England Biolabs, Ipswich, MA, USA) in a final volume of 30 µL for 25 min at 37 °C, 1.5 µL of 0.1 M ethylenediaminetetraacetic acid was added and the DNAse was inactivated by heat (5 min at 75 °C). The solution was diluted to a concentration of 0.1 µg/µL. The DNAse treated RNA was stored at −80 °C until further analyses. The first strand cDNA was synthesized from 800 ng of total RNA and 1 µL of 50 µM random hexamers (Generi Biotech, Hradec Kralove, Czech Republic) using ProtoScript II reverse transcriptase (New England Biolabs, Ipswich, MA, USA). After the initial heat denaturation of total RNA (65 °C for 5 min), 4 µL of 5× ProtoScript II RT Reaction Buffer, 2 µL of 10× dithiothreitol (DTT), 2 µL of deoxynucleotide (dNTP) Mix 5 mM, 3.5 µL of H2O, and 0.5 µL of ProtoScript II 200 U/µL were added and mixed by pipetting. The reactions (20 µL) were incubated for 10 min at 25 °C, for 50 min at 42 °C, and for 5 min at 80 °C. The obtained cDNAs were diluted 1:6 by DEPC water. The qPCR analyses were carried out using QuantStudio 6 Flex (Applied Biosystems, Foster City, CA, USA) with SYBR green I (Xceed qPCR SG Mix, Institute of Applied Biotechnologies, Prague, Czech Republic) detection according to the manufacturer’s protocol. […] Fluorescence data were recorded at the end of each amplification step. Relative expression levels of the target genes were calculated as fold changes in triplicates for each group using the 2^−ΔΔCt method [28] by normalization to the geometric mean of the Ct values of Sdha and Ywhaz, which were used as reference genes.

PLIN4 mRNA = test: RT-qPCR mRNA expression in dHepaRG cells; assay type: cell-based, human; conditions: single exposure, 6, 12 and 24 h
Procedure: as §2, §1

SCD mRNA = test: RT-qPCR mRNA expression in dHepaRG cells; assay type: cell-based, human; conditions: single exposure, 6, 12 and 24 h
Procedure: All treatments were performed in triplicates and every experiment was performed three times. The cells were washed twice with ice cold phosphate-buffered saline (PBS), scrapped and stored at −80 °C until use. Total RNA from cells was isolated using TriReagent according to the manufacturer’s instructions (Biotech, Prague, Czech Republic). The purified RNA was dissolved in 40 µL of diethyl pyrocarbonate (DEPC)-treated water (0.01% DEPC in HPLC water, autoclaved) and stored at −80 °C. The measurement of absorbance at 260 and 280 nm using the NanoDrop ND-1000 UV–VIS Spectrophotometer (Thermo Fisher Scientific, Pardubice, Czech Republic) was used to determine RNA yields and purity. Subsequently, the RNA (4 µg) was treated with 2 U of DNase I (New England Biolabs, Ipswich, MA, USA) in a final volume of 30 µL for 25 min at 37 °C, 1.5 µL of 0.1 M ethylenediaminetetraacetic acid was added and the DNAse was inactivated by heat (5 min at 75 °C). […] Fluorescence data were recorded at the end of each amplification step. Relative expression levels of the target genes were calculated as fold changes in triplicates for each group using the 2^−ΔΔCt method [28] by normalization to the geometric mean of the Ct values of Sdha and Ywhaz, which were used as reference genes.

dHepaRG cells = test: Cholesterol level (Amplex Red Cholesterol Assay kit); assay type: cell-based, human; conditions: multiple exposure: four applications every 24 h, cells collected 12 h after the last; 30 μM ATL, 100 μM GER
Procedure: The cholesterol content in the dHepaRG cells was tested using the Amplex Red Cholesterol Assay kit (Invitrogen) according to the manufacturer’s instructions and as per An et al.. The cells were collected 12 h after the last exposure of the tested compounds in a 4-day exposure with a medium change every 24 h. The cells were rinsed three times in PBS to eliminate residual growth medium. Whole cell extracts were prepared by 0.5 mL of RIPA lysis buffer (0.5% sodium deoxycholate, 0.1% SDS, 1% NP-40, 150 mM NaCl, 1 mM DTT, 50 mM Tris–HCl (pH = 7.4) and phenylmethanesulfonyl fluoride. Fluorescence was measured using a microplate reader (Tecan Infinite M200) at 530 nm excitation and 590 nm emission wavelengths. The total cholesterol (TC) content was determined by measuring the cholesterol concentration following digestion with cholesterol esterase (CE). To measure the free cholesterol (FC), CE was omitted from the assay. Three independent experiments were performed. The values obtained from a cholesterol standard curve were normalized to protein content, measured by a BCA assay.

HepG2 = conditions: HepG2, 24 h, read-out: Previously Reported IC50 Values (24 h), cited from earlier work
MDA-MB-231 = conditions: MDA-MB-231, 24 h; read-out: Previously Reported IC50 Values (24 h); cited from earlier work

For C=C1C(=O)O[C@@H]2C[C@@]3(C)CCC[C@H](C)C3=C[C@H]12 [ATL, alantolactone], the “CYP3A4 mRNA expression” value (CYP3A4 mRNA) was “induced”, the “TFRC mRNA expression” value (TFRC mRNA) was “inhibited” and the “CYP19A1 mRNA level” value (CYP19A1 mRNA; 20 and 40 µM, all the studied intervals (6, 12, 24 h)) was “induced”. For the same compound, the “PLIN4 mRNA level” value (PLIN4 mRNA) was “decreased”, the “SCD mRNA level” value (SCD mRNA) was “significantly decreased” and the “level of free cholesterol and esterified cholesterol” value (dHepaRG cells) was “no effect was observed”. For the same compound, the IC50 (HepG2; ref 9) was 33 µM, the IC50 (HepG2; ref 35) was 7 µM and the IC50 (HepG2; ref 36) was 30 µM. For the same compound, the IC50 (MDA-MB-231) was > 15 µM.
In the case of CC(C)=C1C/C=C(\C)CC/C=C(\C)CC1=O [GER, germacrone], the “CYP3A4 mRNA expression” value (CYP3A4 mRNA) is reported as “induced”, the “TFRC mRNA expression” value (TFRC mRNA) is reported as “inhibited” and the “CYP19A1 mRNA level” value (CYP19A1 mRNA; 100 µM, 24-h exposure) is reported as “induced the level by nearly two-fold; also recorded: significantly induced”. The “CYP19A1 mRNA level” value (CYP19A1 mRNA; both higher concentrations, 6- and 12-hour exposure) was “decreased”, the “PLIN4 mRNA level” value (PLIN4 mRNA) was “no significant change” and the “SCD mRNA level” value (SCD mRNA) was “significantly decreased”. For the same compound, the “level of free cholesterol and esterified cholesterol” value (dHepaRG cells) was “no effect was observed”, the IC50 (HepG2; ref 7) was 170 µM and the IC50 (HepG2; ref 12) was 160 µM. For the same compound, the IC50 (HepG2; ref 13) was > 240 µM and the IC50 (MDA-MB-231) was 244 µM.
